According to US20240301218A1, “Polymeric Antifouling Coating with Antimicrobial Peptides” (THE UNIVERSITY OF BRITISH COLUMBIA, priority 2021, published 2024):
No end group written: not given here.

Tests used:
E. coli = tested on: E. coli
Excerpt: (§1) Ultra-high molecular weight poly(N,N-dimethylacrylamide) (uhPDMA) and high molecular weight poly(N,N-dimethylacrylamide) (hPDMA) were synthesized by atom transfer radical polymerization 391. N-(3-Aminopropyl) methacrylamide hydrochloride (APMA) (98%) was purchased from Polysciences™, USA and was used as supplied. All other reagents including 1, 1, 4, 7, 10, 10-hexamethyl triethylene tetramine (HMTETA) (97%), Tris[2-(dimethylamino)ethyl]amine (Me6TREN) 97%, methyl 2-chloropropionate (97%), CuCl (99%), CuCl2 (99%), 1-thioglycerol (97%) were purchased from Sigma-Aldrich™ (Oakville, ON). A single-side-polished silicon wafer (University Wafer™, Boston, MA) deposited with titanium was prepared by e-beam evaporation of titanium. The process was progressed in a home-assembled Evaporator 2000™ system equipped with a quartz crystal microbalance to monitor the film thickness and a cryo pump to reach high-vacuum (10^−7-10^−6 Torr) condition. After deposition, the substrates were washed with Milli-Q water™, dried via a nitrogen gun, and stored for further usage. SurFlash™I.V. Catheter Cat. #SR*FF1451, #SR*FF2419 (14 Gauge and 24 Gauge) made of polyurethane (PU), were purchased from Terumo™. […] Pure products were finally characterized by analytical reverse phase high performance liquid chromatography (RP-HPLC) and liquid chromatography-mass spectrometry (LC-MS). The broth microdilution method with minor modifications for cationic peptides was used for measuring the MICs of peptides.

P. aeruginosa = tested on: P. aeruginosa
Excerpt: as §1

S. aureus = tested on: S. aureus
Excerpt: as §1

S. saprophyticus = tested on: S. saprophyticus
Excerpt: as §1

E. coli (E38.lux) = test: 96-well plate screening of surface conjugated AMPs for biofilm inhibition; format: cell-based; conditions: AMP tethered on BA coating, polypropylene 96-well plate, vs uncoated pp
Protocol: (§2) Screening and Identification of Surface Conjugated AMPs with Anti-Biofilm Activity on a 96-Well Plate Bioluminescence-tagged bacterial strains used in this study included S. aureus (Xen36), P. aeruginosa (PAO1.lux), E. coli (E38.lux), and S. saprophyticus (ATCC 15305). Bacteria were cultured in LB, with shaking at 250 rpm, at 37° C. Bacterial growth was monitored using a spectrophotometer at the optical density of 600 nm (OD600). S. aureus Xen36 was purchased from PerkinElmer Inc.™ while P. aeruginosa PAO1.lux and E. coli E38.lux were generated by conjugating in plasmids that constitutively-expressed lux reporter genes^[40]. The biofilm inhibitory activity of AMPs conjugated onto coated polypropylene surfaces were evaluated in a static microtitre plate assay as previously described with some modifications^[41]. For all experiments, 96-well Costar™ polypropylene plates (Corning™) were used. An overnight culture of selected bacterial strains in LB was diluted to an OD600=0.01 in TSB or basal medium 2 (BM2) supplemented with 0.1% or 0.4% glucose and 0.5 mM MgSO4, (the biofilm growth medium for different bacteria is listed in TABLE 1).
(§3) For inhibition experiments, 100 μL of the diluted overnight culture was added to each well in the plate coated with control coating and AMP coating, respectively. After overnight growth under static condition at 37° C., planktonic cells were removed, adhered biomass rinsed three times with distilled water and subsequently the remaining adhered total biomass was quantified by measuring the luminescence (Total white light) using the Synergy H1™ multimode microtitre plate reader (BioTek™). The remaining adhered S. saprophyticus biomass was quantified using the crystal violet (CV) staining. Briefly, each well was added and incubated with 125 μL of 0.1% (v/v) CV solution for 30 minutes at room temperature with moderate shaking. Then, CV was discarded, and each well was rinsed three times with distilled water. The remaining CV stain was resuspended in 150 μL of 70% ethanol for 30 minutes at room temperature with moderate shaking and then quantified by measuring OD59, using the Synergy H1™ multimode microplate plate reader (BioTek™). The percent biofilm inhibition was calculated in relation to the amount of biofilm grown in the absence of the coating (defined as 100%) and the media sterility control (defined as 0% growth). The experiment was repeated 3 times with 3 technical replicates per biological replicate.

P. aeruginosa (PAO1.lux) = test: as above; format: cell-based; conditions: AMP tethered on BA coating, polypropylene 96-well plate, vs uncoated pp
Protocol: as §2, §3

S. aureus (Xen36) = test: as above; format: cell-based; conditions: AMP tethered on BA coating, polypropylene 96-well plate, vs uncoated pp
Protocol: as §2, §3

S. epidermidis = test: Antimicrobial activity of BA-AMPs coating against planktonic bacteria; format: cell-based; conditions: MHB medium, 24 h, coated PP wells
Protocol: The uhPDMA was prepared at a concentration of 36 mg mL^−1 in sodium acetate buffer (50 mM, pH=5). Dopamine was freshly prepared at a concentration of 12 mg mL^−1 in sodium acetate buffer (50 mM, pH=5) before each experiment. Sodium periodate (NaIO4) was freshly prepared at a concentration of 28 mg mL-1 in sodium acetate buffer (50 mm, pH=5). The dopamine solution was then mixed with uhPDMA solution with a volume ratio of 1:5 (dopamine:uhPDMA). Sodium periodate solution was then added to generate a final concentration of uhPDMA at 30 mg mL^−1, dopamine at 2 mg mL^−1, and NaIO4 at 0.9 mg mL^−1. Mixed solution (200 μL) was added into the wells of 96-well polypropylene plate. The plate was placed onto a rocking platform with shaking at 50 rpm for 2 hr. The coated plate was then rinsed by Milli-Q™ water and dried for further characterization. Peptide solutions (200 μL, 0.25 mg/mL in 10 mM phosphate buffer, pH ˜8) were added into the wells and incubated for 24 h. The peptide-conjugated plate were rinsed with Milli-Q™ water thoroughly and dried under argon flow. […] After 24 hrs growth under shaking condition at room temperature, bacteria culture (100 μL) was transferred to sterile clear polystyrene plate and the optical density was read using UV-vis spectrometer at wavelength 595 nm. […]

RRWRIVVIRVRRC-NH2 [E6, RRWRIVVIRVRRC-NH2]
MIC E. coli (E. coli): 8 µg/mL | MIC P. aeruginosa (P. aeruginosa): 32 µg/mL | MIC S. aureus (S. aureus): 64 µg/mL | MIC S. saprophyticus (S. saprophyticus): 4 µg/mL | reduction of biofilm formation (E. coli (E38.lux)): 91.8% | reduction of biofilm formation (P. aeruginosa (PAO1.lux)): 98.2% | reduction of biofilm formation (S. aureus (Xen36)): 93% | killing of planktonic S. epidermidis (S. epidermidis): complete killing
